Measurements: the supplement of paper PMC10307832

Legend:
Assay in all cases: relative viability (nuclei count vs DMSO), 5 days (fraction); higher = more cells survive
Doramapimod + Pictilisib = compound: Cc1ccc(-n2nc(C(C)(C)C)cc2NC(=O)Nc2ccc(OCCN3CCOCC3)c3ccccc23)cc1 [Doramapimod] + CS(=O)(=O)N1CCN(Cc2cc3nc(-c4cccc5[nH]ncc45)nc(N4CCOCC4)c3s2)CC1 [Pictilisib] (partner 1 µM)
Outline: (§1)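 After 5 days of treatment, lung cancer cells in 1536-well plates were fixed and stained in a single step (final 0.05% Triton X-100, 1% formaldehyde, 1 ug/ml Hoechst) and their nuclei counted on 4× images. Treatment had been applied by pin tool the day after seeding as one drug alone or as a fixed anchor-drug dose with five library-drug doses (not always all listed) in √10 steps. Relative viability is the nuclei count of treated wells divided by that of vehicle wells, and values are medians of duplicate plates.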

Doramapimod + Linsitinib = compound: Cc1ccc(-n2nc(C(C)(C)C)cc2NC(=O)Nc2ccc(OCCN3CCOCC3)c3ccccc23)cc1 [Doramapimod] + C[C@]1(O)C[C@@H](c2nc(-c3ccc4ccc(-c5ccccc5)nc4c3)c3c(N)nccn32)C1 [Linsitinib] (partner 1 µM)
Outline: as §1

RAF265 + Pemetrexed = compound: Cn1c(Nc2ccc(C(F)(F)F)cc2)nc2cc(Oc3ccnc(-c4ncc(C(F)(F)F)[nH]4)c3)ccc21 [RAF265] + Nc1nc2[nH]cc(CCc3ccc(C(=O)N[C@@H](CCC(=O)O)C(=O)O)cc3)c2c(=O)[nH]1 [Pemetrexed] (partner 0.2 µM)
Outline: as §1

RAF265 + Palbociclib = compound: Cn1c(Nc2ccc(C(F)(F)F)cc2)nc2cc(Oc3ccnc(-c4ncc(C(F)(F)F)[nH]4)c3)ccc21 [RAF265] + CC(=O)c1c(C)c2cnc(Nc3ccc(N4CCNCC4)cn3)nc2n(C2CCCC2)c1=O [Palbociclib] (partner 0.5 µM)
Outline: as §1

| Cell Line | relative viability (Doramapimod + Pictilisib; first compound 0.02 µM) | relative viability (Doramapimod + Pictilisib; first compound 0.06325 µM) | relative viability (Doramapimod + Pictilisib; first compound 0.2 µM) | relative viability (Doramapimod + Pictilisib; first compound 0.6325 µM) | relative viability (Doramapimod + Pictilisib; first compound 2 µM) | relative viability (Doramapimod + Linsitinib; first compound 0.02 µM) | relative viability (Doramapimod + Linsitinib; first compound 0.06325 µM) | relative viability (Doramapimod + Linsitinib; first compound 0.2 µM) | relative viability (Doramapimod + Linsitinib; first compound 0.6325 µM) | relative viability (Doramapimod + Linsitinib; first compound 2 µM) | relative viability (RAF265 + Pemetrexed; first compound 0.01 µM) | relative viability (RAF265 + Pemetrexed; first compound 0.03162 µM) | relative viability (RAF265 + Pemetrexed; first compound 0.1 µM) | relative viability (RAF265 + Pemetrexed; first compound 0.3162 µM) | relative viability (RAF265 + Pemetrexed; first compound 1 µM) | relative viability (RAF265 + Palbociclib; first compound 0.01 µM) | relative viability (RAF265 + Palbociclib; first compound 0.03162 µM) | relative viability (RAF265 + Palbociclib; first compound 0.1 µM) | relative viability (RAF265 + Palbociclib; first compound 0.3162 µM) | relative viability (RAF265 + Palbociclib; first compound 1 µM) |
| --- | --- | --- | --- | --- | --- | --- | --- | --- | --- | --- | --- | --- | --- | --- | --- | --- | --- | --- | --- | --- |
| NCI-H647 | 0.434 | 0.509 | 0.428 | 0.664 | 0.406 | 1.22 | 1.24 | 1.15 | 1.03 | 1.04 | 0.156 | 0.161 | 0.174 | 0.142 | 0.178 | 0.335 | 0.401 | 0.196 | 0.228 | 0.218 |
| NCI-H1975 | 0.324 | 0.32 | 0.315 | 0.373 | 0.294 | 1.07 | 0.956 | 0.885 | 0.98 | 0.926 | 0.307 | 0.256 | 0.234 | 0.203 | 0.19 | 0.609 | 0.396 | 0.263 | 0.184 | 0.182 |
| NCI-H358 | 0.388 | 0.329 | 0.373 | 0.373 | 0.321 | 0.68 | 0.598 | 0.611 | 0.722 | 0.667 | 0.159 | 0.165 | 0.151 | 0.149 | 0.147 | 0.129 | 0.117 | 0.116 | 0.129 | 0.124 |
| PC-3 [JPC-3] | 0.809 | 0.772 | 0.771 | 0.897 | 0.421 | 1.07 | 0.987 | 0.987 | 1.06 | 0.998 | 1.17 | 1.11 | 1.24 | 0.42 | 0.621 | 0.55 | 0.538 | 0.524 | 0.437 | 0.429 |
| NCI-H1792 | 0.271 | 0.234 | 0.222 | 0.254 | 0.211 | 0.434 | 0.434 | 0.536 | 0.615 | 0.351 | 0.808 | 0.517 | 0.539 | 0.0889 | 0.118 | 0.658 | 0.676 | 0.758 | 0.474 | 0.298 |
| NCI-H596 | 0.417 | 0.381 | 0.407 | 0.429 | 0.355 | 0.99 | 1.03 | 1.02 | 1.05 | 1 | 0.565 | 0.504 | 0.474 | 0.538 | 0.448 | – | – | – | – | – |
| EBC-1 | 0.355 | 0.279 | 0.363 | 0.355 | 0.247 | 0.924 | 0.811 | 0.826 | 0.937 | 0.817 | – | – | – | – | – | – | – | – | – | – |
| ABC-1 | 0.847 | 0.614 | 0.646 | 0.757 | 0.737 | 0.876 | 0.944 | 0.744 | 0.942 | 0.806 | – | – | – | – | – | 0.633 | 0.644 | 0.646 | 0.528 | 0.47 |
| NCI-H1650 | 0.537 | 0.629 | 0.724 | 0.329 | 0.474 | – | – | – | – | – | 0.336 | 0.362 | 0.431 | 0.324 | 0.369 | 0.385 | 0.319 | 0.418 | 0.278 | 0.277 |
| NCI-H1563 | 0.677 | 0.633 | 0.634 | 0.724 | 0.645 | 1.17 | 1.23 | 1.25 | 1.25 | 1.2 | 0.943 | 0.886 | 0.77 | 0.779 | 0.699 | – | – | – | – | – |
| SW 900 | – | – | – | – | – | – | – | – | – | – | 0.486 | 0.512 | 0.512 | 0.488 | 0.254 | 0.582 | 0.558 | 0.519 | 0.396 | 0.237 |
| NCI-H1299 | 0.769 | 0.444 | 0.751 | 0.597 | 0.521 | 1 | 1.04 | 1.01 | 1.06 | 0.985 | – | – | – | – | – | – | – | – | – | – |
| A549 | 0.533 | 0.492 | 0.522 | 0.497 | 0.421 | 0.551 | 0.532 | 0.567 | 0.794 | 0.523 | – | – | – | – | – | – | – | – | – | – |
| NCI-H1703 | 0.234 | 0.226 | 0.236 | 0.248 | 0.215 | 0.637 | 0.601 | 0.68 | 0.908 | 0.532 | – | – | – | – | – | – | – | – | – | – |
| NCI-H2170 | 0.332 | 0.325 | 0.295 | 0.438 | 0.269 | – | – | – | – | – | 0.245 | 0.258 | 0.263 | 0.261 | 0.251 | 0.398 | 0.295 | 0.354 | 0.26 | 0.295 |
| NCI-H2342 | – | – | – | – | – | – | – | – | – | – | 0.809 | 0.818 | 0.782 | 0.803 | 0.788 | 0.582 | 0.547 | 0.558 | 0.468 | 0.474 |
| Calu-6 | 0.89 | 0.891 | 0.91 | 0.997 | 0.844 | 1.02 | 0.978 | 0.942 | 1.04 | 0.966 | – | – | – | – | – | – | – | – | – | – |
| ChaGo-K-1 | 0.805 | 0.888 | 0.96 | – | 0.688 | – | – | – | – | – | 0.262 | 0.273 | 0.248 | 0.262 | 0.325 | 0.935 | 0.951 | 0.89 | 0.844 | 0.607 |
